“And” between values parts separate entries of the source, which are not always exact repeats. Equal values may be shown once. Numbers after ± are expanded uncertainties.
Tests used:
[1] = 298.2 K; 101.33 kPa; Liquid; Vibrating tube method
[2] = refractive index (Na D-line) (dimensionless); settings: 298.2 K; 101.33 kPa; Liquid; Standard Abbe refractometry
[3] = refractive index (Na D-line) (dimensionless); wn = mass fraction of the nth substance listed; settings: 298.2 K, 81.5 kPa, Liquid, Standard Abbe refractometry

mass density [1] | refractive index [2] | refractive index ([3]; w2 = 0.0006) | refractive index ([3]; w2 = 0.0008) | refractive index ([3]; w2 = 0.0009) | refractive index ([3]; w2 = 0.001) | refractive index ([3]; w2 = 0.0016) | refractive index ([3]; w2 = 0.9996) | Compound
857.54 ± 1.7 kg/m3 | 1.49005 ± 0.0014 |  |  |  |  |  |  | CC(C)c1ccccc1 [isopropylbenzene]
 |  | 1.48845 ± 0.0014 | 1.48875 ± 0.0014 and 1.48855 ± 0.0014 | 1.49001 ± 0.0014 | 1.4885 ± 0.0014 | 1.48855 ± 0.0014 | 1.333 ± 0.0014 | CC(C)c1ccccc1 [isopropylbenzene] + O
 | 1.3325 ± 0.0014 |  |  |  |  |  |  | O [water]

From the NIST ThermoML archive (doi:10.1021/acs.jced.8b01202)
